The values below come from patent publication US5519116A, “Peptides representing permutations of the mastoparan sequence” (Enichem S.p.A., priority 1991, dated 1996).

The target in one assay is rGOα. Put plainly: GTPγS binding to rGOα to saturation. Set-up: species or system rat. The settings on record: at 20°.
Assay [1] concerns the target T1, rGOα (recombined Goα protein) (Rattus norvegicus, UniProt P59215).
T1 construct: made in house; host or cells: E. coli (plasmid pT7-7)
Put plainly: GTPase activity assay: GTP hydrolyzed by rGOα reconstituted into phospholipid blisters. Format: biochemical. The note with it: for inhibition at 1000 µM: 1 mM concentration of peptide, read-out: inhibition of hydrolysis of GTP by rGOα; for IC50: inhibition of basal GTPase activity of rGOα, read-out: IC 50 (concentration necessary to achieve 50% inhibition); for EC50: stimulation of rGOα GTPase activity, read-out: concentration giving 50 % of maximum stimulation. As for the experimental part:
The activity of the peptides was determined by evaluating the quantity of GTP hydrolyzed in the presence of a recombined Goα protein, using the procedures published by Brandt et al., (1983), Biochemistry, 22, 4357-4362 and by Higashijima et al., (1987), J. Biol. Chem., 262, 757-761.
The rGOα was produced by the authors of the present invention by expression in E.coli of the cDNA of the α subunit of the Go protein present in the rat's brain, inserted in register in the bacterial plasmid pt7-7 (Tabor et al., 1985, Proc. Natl. Acad. Sci. USA, 82, 1074-1078).
Compared with natural GOα, rGOα has an N-terminal deletion of 11 amino acids, replaced by another 5 different amino acids because of the cloning strategy adopted. The molecular weight of rGOα is 38.6 Kd.
When the rGOα is reconstituted into phospholipid blisters (by incubation with a phospholipid mixture at 4° C. for 16 hours), its basal GTPase activity reduces to 0.02 min^-1, This experimental condition which approaches that of the natural protein, in the inactivity state, inserted into the cell membrane was chosen to evaluate the effect of the peptides on the hydrolysis of GTP by rGOα.
5 volumes of a solution of rGOα in 50 mM Hepes, pH 8, 1 mM EDTA, 1 mM DTT and 0.02% of Lubrol (HEDL) were mixed with 1 volume of the same buffer containing 0.84% of sodium cholate, 0.05% of dimyristoyl-L-α-phosphatidylcholine, 0.05% of phosphatidylethanolamine from bovine brain and 0.067% of phosphatidyl-serine from bovine brain (as described by Mousli et al., 1990, Immunol. Lett., 25, 355-358) and preincubated at 4° C. overnight.
An aliquot of 32 μl of this solution was incubated at 20° C. for 5 min in a final volume of 50 μl of HEDL containing 1.1 mM MgCl2 and 0.4 μM (γ^-32 p) GTP (10000-30000 cpm/pmol) and the respective peptide at the final concentrations indicated.
The reactions were terminated by adding 750 μl of a 5% suspension of vegetable charcoal in 20 mM phosphoric acid. After agitation and centrifuging, 400 μl of supernatant containing the radioactive phosphate were counted by liquid scintillation.

Molecules are shown by their SMILES. Peptide text beside a SMILES is read from it.

For orientation: Kd means the constant that tells how readily two partners part at equilibrium. Low readings indicate higher affinity, high ones lower affinity. One may read the inhibition as the percentage by which the read-out fell short of the control.

T1 sequence (P59215 13-354): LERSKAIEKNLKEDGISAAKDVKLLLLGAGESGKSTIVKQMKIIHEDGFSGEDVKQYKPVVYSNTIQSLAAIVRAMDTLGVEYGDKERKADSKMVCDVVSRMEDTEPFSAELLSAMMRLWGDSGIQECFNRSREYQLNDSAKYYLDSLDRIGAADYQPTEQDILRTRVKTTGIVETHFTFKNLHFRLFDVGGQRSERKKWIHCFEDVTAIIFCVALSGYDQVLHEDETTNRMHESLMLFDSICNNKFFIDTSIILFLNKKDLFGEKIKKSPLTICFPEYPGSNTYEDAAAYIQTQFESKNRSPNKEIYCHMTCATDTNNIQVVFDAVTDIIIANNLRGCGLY

`Nc1nc2c(ncn2[C@@H]2O[C@H](COP(=O)(O)OP(=O)(O)OP(O)(O)=S)[C@@H](O)[C@H]2O)c(=O)[nH]1` [GTPγ S] returned a Kd at rGOα of 0.0029 µM.

With `CC[C@H](C)[C@H](N)C(=O)N[C@@H](CC(N)=O)C(=O)N[C@@H](CC(C)C)C(=O)N[C@@H](CCCCN)C(=O)N[C@@H](C)C(=O)N[C@@H](CC(C)C)C(=O)N[C@@H](C)C(=O)N[C@@H](C)C(=O)N[C@@H](CC(C)C)C(=O)N[C@@H](C)C(=O)N[C@@H](CCCCN)C(=O)N[C@@H](CCCCN)C(=O)N[C@H](C(=O)N[C@@H](CC(C)C)C(N)=O)[C@@H](C)CC` [Mastoparan, mastoparan], the “increase of GTP hydrolysis” value in assay [1] (1 mM of peptide (no additional effect beyond this concentration), 20° C., 5 min) was determined as 5 times. The “effect on the GTPase activity of rGOα (capacity to activate the protein rGoα)” value in assay [1] (summary in words) is listed as “stimulate the GTPase activity of rGOα in a manner dependent on the concentration”.

Turning to `CC[C@H](C)[C@H](NC(=O)[C@H](CC(C)C)NC(=O)[C@H](C)NC(=O)[C@H](CCCCN)NC(=O)[C@H](CC(C)C)NC(=O)[C@H](CC(N)=O)NC(=O)[C@H](CC(C)C)NC(=O)[C@H](C)NC(=O)[C@@H](NC(=O)[C@H](CCCCN)NC(=O)[C@@H](N)CC(C)C)[C@@H](C)CC)C(=O)N[C@@H](C)C(=O)N[C@@H](C)C(=O)N[C@@H](CCCCN)C(=O)O` [compound 2] (H-LKIALNLKALIAAK-OH), in assay [1], the inhibition at 1000 µM is above 90% and the IC50 worked out at 130 µM.

In the case of `CC[C@H](C)[C@H](NC(=O)[C@H](C)NC(=O)[C@H](CC(C)C)NC(=O)[C@H](C)N)C(=O)N[C@@H](CCCCN)C(=O)N[C@@H](CC(C)C)C(=O)N[C@H](C(=O)N[C@@H](CC(C)C)C(=O)N[C@@H](CC(N)=O)C(=O)N[C@@H](CC(C)C)C(=O)N[C@@H](CCCCN)C(=O)N[C@@H](C)C(=O)N[C@@H](CCCCN)C(=O)N[C@@H](C)C(=O)O)[C@@H](C)CC` [peptide 1] (H-ALAIKLILNLKAKA-OH), in assay [1], the inhibition at 1000 µM was 75% and the IC50 was found to be 215 µM.

`CC[C@H](C)[C@H](N)C(=O)N[C@@H](CC(N)=O)C(=O)N[C@@H](CC(C)C)C(=O)N[C@@H](C)C(=O)N[C@@H](C)C(=O)N[C@@H](CC(C)C)C(=O)N[C@@H](CCCCN)C(=O)N[C@@H](CCCCN)C(=O)N[C@@H](CC(C)C)C(=O)N[C@@H](C)C(=O)N[C@@H](C)C(=O)N[C@@H](CCCCN)C(=O)N[C@H](C(=O)N[C@@H](CC(C)C)C(=O)O)[C@@H](C)CC` [peptide 4] (H-INLAALKKLAAKIL-OH): the EC50 in assay [1] (20° C., 5 min) came out at 500 µM.

Regarding `CC[C@H](C)[C@H](NC(=O)[C@H](C)NC(=O)[C@H](CCCCN)NC(=O)[C@H](CC(C)C)NC(=O)[C@H](CCCCN)NC(=O)[C@H](C)NC(=O)[C@H](CC(N)=O)NC(=O)[C@@H](N)CC(C)C)C(=O)N[C@@H](C)C(=O)N[C@@H](CC(C)C)C(=O)N[C@@H](C)C(=O)N[C@@H](CC(C)C)C(=O)N[C@H](C(=O)N[C@@H](CCCCN)C(=O)O)[C@@H](C)CC` [peptide 7] (H-LNAKLKAIALALIK-OH), in assay [1], the inhibition at 1000 µM is 63% and the IC50 was 600 µM.

For `CC[C@H](C)[C@H](NC(=O)[C@H](CC(C)C)NC(=O)[C@H](C)NC(=O)[C@H](CCCCN)NC(=O)[C@H](C)NC(=O)[C@H](CC(C)C)NC(=O)[C@H](C)NC(=O)[C@H](CC(C)C)NC(=O)[C@@H](NC(=O)[C@@H](N)CC(N)=O)[C@@H](C)CC)C(=O)N[C@@H](CCCCN)C(=O)N[C@@H](C)C(=O)N[C@@H](CC(C)C)C(=O)N[C@@H](CCCCN)C(=O)O` [peptide 8] (H-NILALAKALIKALK-OH), the EC50 in assay [1] (20° C., 5 min) was found to be 250 µM.
